Patent US20260103497A1, “DUAL GLP-1 AND GIP RECEPTOR AGONIST PHARMACEUTICAL COMPOSITION AND USE THEREOF” (BRIGHTGENE PTE. LTD., priority 2022, published 2026)

Assays:
[1] = Solubility of the compound of formula I in compositions with sodium chloride or propylene glycol; type: physicochemical; conditions: disodium hydrogen phosphate dodecahydrate, pH 7, water for injection
Excerpt: It is worth mentioning that in polypeptide-based preparations, sodium chloride is believed to play a role in maintaining electrolyte balance and stabilizing polypeptide structures, and it is present as a stabilizer in a variety of existing polypeptide-based preparations.

GIP receptor = molecular target: T1, GIP receptor (Homo sapiens, UniProt P48546); test: Preclinical agonistic effect on GIP receptor; conditions: greater activity compared to Tirzepatide; preclinical studies
T1 sequence (P48546 22-466): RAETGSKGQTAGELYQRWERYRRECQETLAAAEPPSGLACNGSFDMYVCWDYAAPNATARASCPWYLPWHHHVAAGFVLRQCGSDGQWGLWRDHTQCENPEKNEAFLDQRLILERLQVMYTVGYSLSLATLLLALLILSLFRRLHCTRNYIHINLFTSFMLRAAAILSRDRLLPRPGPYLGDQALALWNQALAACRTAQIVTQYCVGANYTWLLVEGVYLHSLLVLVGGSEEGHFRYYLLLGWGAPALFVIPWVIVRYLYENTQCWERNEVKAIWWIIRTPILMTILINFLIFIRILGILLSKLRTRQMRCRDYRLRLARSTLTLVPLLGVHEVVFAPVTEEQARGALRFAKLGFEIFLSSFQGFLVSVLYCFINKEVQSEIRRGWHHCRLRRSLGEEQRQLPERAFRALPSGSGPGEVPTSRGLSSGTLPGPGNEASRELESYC

plasma proteins = test: Plasma protein binding; type: in vitro ADME; conditions: plasma proteins from all species
GLP-1 receptor = GLP-1 receptor (Homo sapiens, UniProt P43220); test: Preclinical agonistic effect on GLP-1 receptor; conditions: greater activity compared to Tirzepatide; preclinical studies
[2] = Pre-clinical pharmacokinetics in cynomolgus monkeys; conditions: cynomolgus monkey, in vivo
[3] = Pre-clinical pharmacokinetics in rats; conditions: rat, in vivo

GLP-1 receptor, sequence (P43220 24-463, species assumed): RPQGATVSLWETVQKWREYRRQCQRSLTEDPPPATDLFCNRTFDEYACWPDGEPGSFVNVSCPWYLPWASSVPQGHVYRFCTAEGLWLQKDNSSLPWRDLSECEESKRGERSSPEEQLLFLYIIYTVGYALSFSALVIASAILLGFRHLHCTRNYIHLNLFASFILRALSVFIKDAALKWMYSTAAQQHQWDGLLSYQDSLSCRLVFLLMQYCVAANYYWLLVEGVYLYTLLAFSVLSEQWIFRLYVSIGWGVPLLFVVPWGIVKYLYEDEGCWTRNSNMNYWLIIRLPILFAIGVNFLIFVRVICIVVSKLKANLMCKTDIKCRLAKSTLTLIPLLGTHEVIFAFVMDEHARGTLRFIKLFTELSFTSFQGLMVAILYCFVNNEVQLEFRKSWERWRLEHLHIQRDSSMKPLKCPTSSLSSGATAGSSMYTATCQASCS

In the case of `NC(=O)C(CCCCNC(=O)COCCOCCOCCNC(=O)COCCOCCOCCNC(=O)CCC(NC(=O)CC(=O)O)C(=O)O)NN[C@H](C=O)CO` (stereo partly shown) [Compound of formula I], the solubility ([1]; pH 7, propylene glycol as stabilizer (14 mg in 1 mL)) is reported as at least 30000 µg/mL, the solubility ([1]; sodium chloride instead of propylene glycol (16.4 mg in 2 mL)) is reported as 150 µg/mL and the “agonistic activity on GIP receptor compared to Tirzepatide” value (GIP receptor) is reported as 2- to 3 fold. The “binding rates to plasma proteins” value (plasma proteins) was “over 99.4%”, the “agonistic activity on GLP-1 receptor compared to Tirzepatide” value (GLP-1 receptor) was 2- to 3 fold and the half-life [2] was about 40 h. The half-life [3] was about 14 h.
